Where “and” joins values, the source holds several entries; their conditions need not be identical. Equal values may be shown once.
System: Aspergillus niger
Assay: Fungal resistance test on coated test cloth
Assay type: cell-based
Design: key to Judgment (fungal resistance): NG: Completely no fungal growth; TG: Growth on less than 10% of the surface area; SG: Growth on 10% or more and less than 30% of the surface area; MG: Growth on 30% or more and less than 60% of the surface area; HG: Growth on 60% or more of the surface area
Settings: cultured 29±1° C. 7 days; for Growth rate (%) Average: average of three test cloths; for Growth rate (%): single test cloths (three per solution), 0.3 ml ethanol solution (A 1.17%, B 1.00%, C 0.300%) coated, dried 48 hours
Experimental: Each of betaine ester (1), betaine ester (3) and geraniol was dissolved in 99.5% ethanol to prepare solutions having the following concentrations and used as test solutions (A), (B) and (C), respectively.
Test solution (A): betaine ester (1), 1.17% in concentration
Test solution (B): betaine ester (3), 1.00% in concentration
Test solution (C): geraniol, 0.300% in concentration
(1) Preparation of test cloth
A 0.3 ml portion of each test solution or 0.3 ml of 99.5% ethanol used as a control was separately coated on a cotton-polyester mixture test cloth cut into a disc of 25 mm in diameter and then the cloth was dried at 25° C. under 30% relative humidity for 48 hours to be used as a test cloth. Three sheets of the test cloth were prepared for one test solution and used in the test.
(2) Fungal resistance test
A plate agar medium having the following composition was prepared to a thickness of 15 mm in a Petri dish of 150 mm in diameter. The medium was used by sterilizing it in advance at 120° C. for 20 minutes in an autoclave.
Pure water: 1,500 ml, glucose: 15 g, agar: 23 g, inorganic salts stock solution (NH4NO3 90 g, KH2PO4 60 g, MgSO4 7H2O, 15 g, KCl 15 g, pure water 1,000 g): 50 ml
Each test cloth was put on the above medium, and about 1 ml of a spore suspension prepared by dispersing spores of a fungus (Aspergillus niger) in sterile water (containing 0.005% sodium dioctylsulfosuccinate) was sprayed. This was cultured at 29±1° C. for 7 days to carry out comparative test of fungal resistance by inspecting growing condition of the fungus on the periphery or surface of the sample, and the results were evaluated based on the following five step criteria by observing growth condition of the fungus on the test cloth surface with the naked eye and under a microscope. That is, when the fungus is not grown on the surface of a test cloth and also, when the test cloth is peeled from the medium, the fungus is not grown on the backside but forming an inhibition zone, the result is judged as excellent in fungal resistance (NG).
Completely no fungal growth: NG (no growth)
Growth on less than 10% of the surface area: TG (trace of growth)
Growth on 10% or more and less than 30% of the surface area: SG (slight growth)
Growth on 30% or more and less than 60% of the surface area: MG (moderate growth)
Growth on 60% or more of the surface area: HG (heavy growth)

CCCCCCCCCCCCCCCCCC(=O)NCCC[N+](C)(C)CC(=O)OC/C=C(\C)CCC=C(C)C.[Cl-] [betaine ester (1), N,N-dimethyl-N-geranyloxycarbonylmethyl-N-(3-(octadecanoylamino)propyl)ammonium chloride]
Growth rate (%) Average: 0% | Judgment (fungal resistance): NG | Growth rate (%): 0%

CC(C)=CCC/C(C)=C/CO [geraniol, reference compound]
Growth rate (%) Average: 36% | Judgment (fungal resistance): MG (Growth on 30% or more and less than 60% of the surface area) | Growth rate (%) (listed as (C)): 35% and 32% and 40%

CCCCCCCCCCCC(=O)NCCC[N+](C)(C)CC(=O)OC/C=C(\C)CCC=C(C)C.[Cl-] [betaine ester (3), N,N-dimethyl-N-geranyloxycarbonylmethyl-N-(3-(dodecanoylamino)propyl)ammonium chloride]
Growth rate (%) Average: 0% | Judgment (fungal resistance): NG | Growth rate (%): 0%

Reference: patent US6586639B2, “Functional alcohol releasing substance” (Kao Corporation, priority 1999, dated 2003)
